According to patent publication US20230382920A1, “SHMT Inhibitors” (The Trustees of Princeton University, priority 2020, published 2023):
Where a name gives a salt, the structure may show the parent alone. Read-outs that look alike come from different tables or passages of the source.

Key:
[1] = Mouse liver microsome assay (metabolic stability); assay type: in vitro ADME; conditions: mouse liver microsomes; for half-life at 2 µM: in vitro half-life; for microsomal CLint at 2 µM: in vitro intrinsic clearance, read-out: Relative Clint
Description: Example 6. Mouse Liver Microsome Assay
Metabolic stability of several compounds in mouse liver microsomes was tested. Briefly, a master solution was prepared according to Table 31.
Two separate experiments were performed: an experiment with cofactors and an experiment without cofactors. In the experiment with cofactors 40 μL of 10 mM NADPH and 40 μL of 20 mM UDPGA were added to the incubations. The final concentrations of microsomes, NADPH and UDPGA were 0.5 mg/mL, 1 mM and 2 mM, respectively. In the experiment without cofactors 10 μL of 20 mg/mL liver microsomes and 80 μL of ultra-pure H2O were added to the incubations. The final concentration of microsomes was 0.5 mg/mL. The mixture was pre-warmed at 37° C. for 5 minutes.
The reaction was started with the addition of 4 μL of 200 μM control compound or test compound solutions. Verapamil was used as positive control in this study. The final concentration of test compound was 2 μM and the final concentration of control compound was 1 μM. The incubation solution was incubated in water bath at 37° C.
Aliquots of 50 μL were taken from the reaction solution at 0.5, 5, 15, 30, 45 and 60 minutes. The reaction was stopped by the addition of five volumes of cold acetonitrile with IS (100 nM alprazolam, 200 nM caffeine and 100 nM tolbutamide). Samples were centrifuged at 3,220 g for 40 minutes. Aliquot of 100 μL of the supernatant was mixed with 100 μL of ultra-pure H2O and then subject to LC-MS/MS analysis.
All calculations were carried out using Microsoft Excel. Peak areas were determined from extracted ion chromatograms. The slope value, k, was determined by linear regression of the natural logarithm of the remaining percentage of the parent drug versus incubation time curve. The in vitro half-life (in vitro t½) was determined from the slope value:
Conversion of the in vitro t1/2(min) into the in vitro intrinsic clearance (in vitro CLint, in μL/min/mg protein) was done using the following equation (mean of duplicate determinations): […]

[2] = system: HCT116; test: HCT116 formate rescue assay (with sodium formate 1 mM); assay type: cell-based; conditions: Homo sapiens, HCT-116, 96 h, HCT116 growth
Description: (§1) Example 5. HCT116 Growth Inhibition and Formate Rescue Assays
(§2) 3,000 Cells were plated in each well of a 96-well plate with 80 μL of DMEM media supplemented with 10% dFBS, and incubated for 24 hours. Drugs with or without sodium formate (1 mM) were then added to each well to a final volume of 100 μL. Cell growth was measured as fluorescence intensity by resazurin after four days. In short, resazurin was added to each well to a final concentration of 10 μg·mL^−1. After incubation for one hour, fluorescence was measured by a Synergy HT plate reader (BioTek Instruments).

[3] = system: HCT116; test: HCT116 growth inhibition assay; assay type: cell-based; conditions: without formate
Description: as §1, §2

[4] = Pharmacokinetics study of KDG-0271 in male CD1 mice (Example 3); assay type: in vivo; conditions: for F: bioavailability vs 1 mg/kg IV; for MRT inf: read-out: MRTInf_obs
Description: A standard PK study of KDG-0271 was performed in male CD1 mice dosed with a single oral or intraperitoneal dose of KDG-0271. The parameters of the PK study are described in Table 18. Dosing solutions were freshly made prior to use, and were in the form of a suspension. […] For IV and IP, after collection, plasma samples from the same time point were pooled, and the pooled samples were analyzed by LC/MS/MS.
The desired serial concentrations of working solutions were achieved by diluting stock solution of analyte with 50% acetonitrile in water solution. 5 μL of working solutions (1, 2, 4, 20, 100, 200, 1000, 2000 ng/mL) were added to 10 μL of blank CD1 mouse plasma to achieve calibration standards of […] (0.5, 1, 2, 10, 50, 100, 500, 1000 ng/mL) in a total volume of 15 μL. Four quality control samples at 1 ng/mL, 2 ng/mL, 50 ng/mL and 800 ng/mL for plasma were prepared independently of those used for the calibration curves. These QC samples were prepared on the day of analysis in the same way as calibration standards.
15 μL standards, 15 μL QC samples and 15 μL unknown samples (10 μL plasma with 5 μL blank solution) were added to 200 μL of acetonitrile containing IS mixture for precipitating protein. Then the samples were vortexed for 30 seconds. After centrifugation at 4 degrees Celsius, 4000 rpm for 15 minutes, the supernatant was diluted three times with water. 10 μL of diluted supernatant was injected into the LC/MS/MS system for quantitative analysis.
BLOQ=Below quantifiable limit of 1 ng/mL. PK parameters were estimated by non-compartmental model using WinNonlin 6.1. The PO bioavailability (F %) was calculated as following:
AUClast-PO/AUCINF-PO>80%: F=(AUCINF-PO*DoseIV)/(mean AUCINF-IV*DosePO) AUClast-PO/AUCINF-PO≤80% or AUCINF was not available: F=(AUClast-PO*DoseIV)/(mean AUClast-IV*DosePO).
The IP bioavailability (F %) was calculated as following:
AUClast-IP/AUCINF-IP>80%: F=(AUCINF-IP*DoseIV)/(mean AUCINF-IV*DoseIP) AUClast-IP/AUCINF-IP≤80% or AUCINF was not available: F=(AUClast-IP*DoseIV)/(mean AUClast-IV*DoseIP).

[5] = male, mouse, plasma, CD1 mice, 1 mg/kg IV
[6] = male, mouse, CD1 mice, plasma, 1 mg/kg IV, read-out: Concentration IV_Mean
[7] = mouse, plasma, male CD1 mice, 200 mg/kg IP
[8] = mouse, plasma, male CD1 mice, 200 mg/kg PO
[9] = mouse, male CD1 mice, plasma, 200 mg/kg IP, read-out: Concentration IP_Mean
[10] = mouse, male CD1 mice, plasma, 200 mg/kg PO, read-out: Concentration PO_Mean

Cc1n[nH]c2c1C(c1cc(C#CC3CN(C(=O)OC(C)(C)C)C3)cc(CO)c1)(C(C)C)C(C#N)=C(N)O2 (centres unmarked) [KDG-0271, tert-butyl 3-[2-(3-[6-amino-5-cyano-4-isopropyl-3-methyl-1H-pyrano[2,3-c]pyrazol-4-yl]-5-(hydroxymethyl)phenyl)ethynyl]azetidine-1-carboxylate]
half-life at 2 µM [1]: 10 to 20 min
microsomal CLint at 2 µM [1]: 70 to 100 µL/min/mg
IC50 [2]: > 5 µM
IC50 [3]: A″
AUC_%Extrap_obs ([4]; CD1 mice, 1 mg/kg IV): 0.718%
AUClast/D ([4]; CD1 mice, 1 mg/kg IV): 99.3 kg·ng·h/mL/mg
Cl_obs ([4]; CD1 mice, 1 mg/kg IV): 167 mL/min/kg
Vss_obs ([4]; CD1 mice, 1 mg/kg IV): 3.32 L/kg
Concentration IV_Mean ([4]; CD1 mice, plasma, 1 mg/kg IV, 8 h): BLOQ
AUC_%Extrap_obs ([4]; male CD1 mice, 200 mg/kg IP): 43.6%
AUClast/D ([4]; male CD1 mice, 200 mg/kg IP): 40.7 kg·ng·h/mL/mg
F ([4]; male CD1 mice, 200 mg/kg IP): 41.0%
AUC_%Extrap_obs ([4]; male CD1 mice, 200 mg/kg PO): 1.28%
AUClast/D ([4]; male CD1 mice, 200 mg/kg PO): 19.2 kg·ng·h/mL/mg
F ([4]; male CD1 mice, 200 mg/kg PO): 19.4%
clinical symptoms ([4]; male CD1 mice, single dose 200 mg/kg PO or 200 mg/kg IP, entire experiment): No abnormal clinical symptoms were observed
AUC(0-inf) [4, 5]: 100 ng·h/mL
AUC(0-t) [4, 5]: 99.3 ng·h/mL
C0 [4, 5]: 637 ng/mL
half-life [4, 5]: 47.2 min
MRT inf [4, 5]: 19.9 min
concentration at 0.083 h ([4]; male, mouse, CD1 mice, plasma, 1 mg/kg IV, 0.083 h, read-out: Concentration IV_Mean): 301 ng/mL
concentration at 0.25 h [4, 6]: 66.6 ng/mL
concentration at 0.5 h [4, 6]: 24.8 ng/mL
concentration at 1 h [4, 6]: 9.44 ng/mL
concentration at 2 h [4, 6]: 2.87 ng/mL
concentration at 4 h [4, 6]: 0.632 ng/mL
AUC(0-inf) [4, 7]: 14500 ng·h/mL
AUC(0-t) [4, 7]: 8150 ng·h/mL
Cmax [4, 7]: 2160 ng/mL
Tmax [4, 7]: 15 min
half-life [4, 7]: 411 min
MRT inf [4, 7]: 580 min
AUC(0-inf) [4, 8]: 3880 ng·h/mL
AUC(0-t) [4, 8]: 3830 ng·h/mL
Cmax [4, 8]: 1070 ng/mL
Tmax [4, 8]: 60 min
half-life [4, 8]: 72 min
MRT inf [4, 8]: 142 min
concentration at 0.25 h [4, 9]: 2160 ng/mL
concentration at 0.5 h [4, 9]: 1530 ng/mL
concentration at 1 h [4, 9]: 1390 ng/mL
concentration at 2 h [4, 9]: 1160 ng/mL
concentration at 4 h [4, 9]: 992 ng/mL
concentration at 8 h ([4]; mouse, male CD1 mice, plasma, 200 mg/kg IP, 8 h, read-out: Concentration IP_Mean): 638 ng/mL
concentration at 0.25 h [4, 10]: 701 ng/mL
concentration at 0.5 h [4, 10]: 958 ng/mL
concentration at 1 h [4, 10]: 1070 ng/mL
concentration at 2 h [4, 10]: 836 ng/mL
concentration at 4 h [4, 10]: 395 ng/mL
concentration at 8 h ([4]; mouse, male CD1 mice, plasma, 200 mg/kg PO, 8 h, read-out: Concentration PO_Mean): 28.6 ng/mL

Cc1n[nH]c2c1C(c1cc(C#C[C@H]3CC[C@H](NC(=O)OC(C)(C)C)CC3)cc(CO)c1)(C(C)C)C(C#N)=C(N)O2 (some centres unmarked) [KDG-0320, tert-butyl N-[(1r,4r)-4-[2-(3-[6-amino-5-cyano-4-isopropyl-3-methyl-1H-pyrano[2,3-c]pyrazol-4-yl]-5-(hydroxymethyl)phenyl)ethynyl]cyclohexyl]carbamate hydrochloride]
half-life at 2 µM [1]: ≥ 20 min
microsomal CLint at 2 µM [1]: ≤ 70 µL/min/mg
IC50 [2]: < 0.1 µM
IC50 [3]: B″

Cc1n[nH]c2c1C(c1cc(C#C[C@H]3C[C@@H](NC(=O)OC(C)(C)C)C3)cc(CO)c1)(C(C)C)C(C#N)=C(N)O2 (some centres unmarked) [KDG-0388, tert-butyl N-[(1s,3s)-3-[2-(3-[6-amino-5-cyano-4-isopropyl-3-methyl-1H-pyrano[2,3-c]pyrazol-4-yl]-5-(hydroxymethyl)phenyl)ethynyl]cyclobutyl]carbamate]
half-life at 2 µM [1]: ≥ 20 min
microsomal CLint at 2 µM [1]: ≤ 70 µL/min/mg
IC50 [2]: > 5 µM
IC50 [3]: B″
